First: O=C(Nc1ccc(C(=O)NCCCN2CCOCC2)cc1O)C(=O)Nc1cc(Cl)cc(Cl)c1O
Second: Cc1nc(-c2ccccc2)cc(-c2ccc(C#N)o2)c1C(=O)NCCN1CCOCC1
The melting point of the first is higher: 227 °C for the first, 141 to 143 °C for the second.

First: CN(CC(C)(C)c1ccc(Cl)c(Cl)c1)C(=O)Nc1c(F)cc(F)cc1CCc1cc(C(C)(C)C)c(O)c(C(C)(C)C)c1
Second: CC(C)(C)c1cc(=O)n(-c2c(Cl)cc(C(F)(F)F)cc2Cl)[nH]1
The melting point of the first is lower: 145 to 147 °C for the first, 175 °C for the second.

Compared with `CCOc1cc(CCC(=O)O)ccc1OCCCc1cn(-c2ccc(C(F)(F)F)cn2)nc1OCC`, `COCn1ccnc1C(O)(c1ccccc1)c1ccc(C(F)(F)F)cc1` (stereo unspecified) is higher in melting point: 114 to 115 °C for the first, 158 to 159 °C for the second.

Compared with `CCCN(Cc1cccc(-c2noc(C)n2)c1)C(=O)Cc1ccc(-c2ccccc2S(=O)(=O)NC(C)(C)C)cc1`, `COC(=O)c1cccc(-c2c(C)c(C(=O)c3ccc(N)c(C(=O)OC)c3)n3ccccc23)c1` is higher in melting point: 132 to 133 °C for the first, 232 °C for the second.

First: CC(=O)SCC(C)C(=O)N(CC(=O)O)Cc1ccco1 (stereo unspecified)
Second: COc1ccc(CN2C(=O)CC2CC(=O)O)c(OC)c1 (stereo unspecified)
The melting point of the first is higher: 140 to 141 °C for the first, 90 to 91 °C for the second.

First: COC(=O)COc1ccc2cc(-c3csc(Cc4c(Cl)cccc4Cl)n3)ccc2c1
Second: COc1cc(Nc2ncc(C#N)c(-c3ccccc3)n2)cc(OC)c1
The melting point of the first is lower: 174 to 177 °C for the first, 206 to 207 °C for the second.

First: CCCCCCCCCCOc1cc(O)cc(OCCCCCCCCCC)c1
Second: CCCOc1ccc(S(=O)(=O)C(C)(C)C)cc1C(N)=O
The melting point of the first is lower: 48 to 50 °C for the first, 215 to 218 °C for the second.

First: CC(=O)NC[C@H]1CN(c2ccc(C(=O)c3cnc4ccccn34)cc2)C(=O)O1
Second: NS(=O)(=O)c1ccc(NC(=O)C(=O)N2CCC(Cc3ccccc3)CC2)cc1
The melting point of the first is higher: 218 to 220 °C for the first, 184 to 187 °C for the second.

Compared with `CC(C)[Si](C)(C)CCCSCCCNC(=O)n1cc(F)c(=O)[nH]c1=O`, `CC(C)[Si](C)(C)CCSCCNC(=O)n1cc(F)c(=O)[nH]c1=O` is lower in melting point: 101 to 102 °C for the first, 85 to 86 °C for the second.

First: OCCN1CCN(c2cc(Cl)nc(-c3ccccc3)n2)CC1
Second: O=C(OCc1ccccc1)N1CCOc2c(Br)cc(Cl)cc21
The melting point of the first is higher: 103 to 105 °C for the first, 95 to 97.7 °C for the second.

First: CCOC(=O)N1CCN(c2c(F)cc([N+](=O)[O-])c(F)c2COC)CC1
Second: COc1ccc(CS[C@H]2C[C@@H](C(=O)N3CCN(C)CC3)N(C(=O)OCc3ccc([N+](=O)[O-])cc3)C2)cc1
The melting point of the first is lower: 85 to 86 °C for the first, 140 to 141 °C for the second.

First: COc1cc(C(=O)n2c3c(c4ccccc42)CC(C(=O)O)(C(=O)O)CC3)cc(OC)c1OC
Second: CN1CCC(C)(O)C(C)(C)C1Cc1ccccc1 (stereo unspecified)
The melting point of the first is higher: 208 °C for the first, 95 to 103 °C for the second.

First: Cc1nnnn1-c1ccccc1S(N)(=O)=O
Second: CS(=O)(=O)c1cncc(-c2nc(=O)c3ccccc3s2)n1
The melting point of the first is lower: 141 to 148 °C for the first, 232 to 233 °C for the second.

Compared with `CC12CCC(=O)CC1CCC1C2CCC2(C)C(O)C(N=[N+]=[N-])CC12` (stereo unspecified), `COC(=O)C1=C2Nc3ccccc3C23CCNC3CC1` (stereo unspecified) is lower in melting point: 165 to 167 °C for the first, 145 to 148 °C for the second.

First: Nc1ncnc2c1c(-c1cccc3[nH]ncc13)nn2Cc1oc2ccccc2c(=O)c1-c1ccccc1
Second: Cc1c(O)ccc2c(=O)c(-c3ccccc3O)coc12
The melting point of the first is higher: 248 to 252 °C for the first, 196 to 198 °C for the second.

First: Cc1ccnc2[nH]c(C3CC3)nc12
Second: CCOC(=O)c1ccc(OCC2CN(c3nnc(C)s3)CCO2)cc1 (stereo unspecified)
The melting point of the first is higher: 203 to 204 °C for the first, 112 °C for the second.

First: CCCCOC(=O)C(O)C1OC(n2cnc3c(N)ncnc32)C(O)C1O (stereo unspecified)
Second: CCCCc1nc(=O)c2cc(C(O)c3ccco3)ccc2[nH]1 (stereo unspecified)
The melting point of the first is lower: 167 °C for the first, 183 to 185 °C for the second.

First: N=C(Nc1cccc(NC(=O)/C=C/c2ccc(Cl)cc2)c1)c1ccccc1
Second: Cc1cccc(NC(=O)NCC(=O)N(CC(=O)N2CCCCCC2)c2ccccc2)c1
The melting point of the first is lower: 109 to 110 °C for the first, 245 °C for the second.

Compared with `Cc1nnc2n1-c1ccc(I)cc1C(c1ccccc1F)=NC2C` (stereo unspecified), `Cc1c(-c2cccc(C(F)(F)F)c2F)c2cccc(Cl)c2n1CCCNS(C)(=O)=O` is higher in melting point: 142 to 145 °C for the first, 168 °C for the second.

First: CC1(OCc2ccccc2Cl)COC(CCl)OC1 (stereo unspecified)
Second: NS(=O)(=O)NC[C@H]1COc2cc(Cl)ccc2O1
The melting point of the first is lower: 53 to 54 °C for the first, 99 to 100 °C for the second.

First: CCc1cn2c(n1)Cc1cc3c(cc1C(c1ccc(N)cc1)=N2)OCO3
Second: NC1CCn2c1nc1cc(NC(=O)c3cc4cc(F)ccc4n3Cc3cccc(F)c3)cnc12 (stereo unspecified)
The melting point of the first is lower: 192 to 194 °C for the first, 218 to 220 °C for the second.

First: CC12CCC(=O)N1CCCN2C(=O)C(Cl)Cl (stereo unspecified)
Second: O=C(O)CNC(=O)CCCC1CCCCC1
The melting point of the first is higher: 144 to 147 °C for the first, 85 to 88 °C for the second.

First: CC1=C2OC(C)(C)OC2CC(C)(C)C1=O (stereo unspecified)
Second: CN(C)S(=O)(=O)n1cc(C(=O)c2c(Cl)cc(Cl)cc2Cl)nc1C#N
The melting point of the first is lower: 79 to 80 °C for the first, 142 to 150 °C for the second.

Compared with `O=[N+]([O-])c1cn(-c2cccnc2)nc1Br`, `COc1ccc(Cn2ccnc2S)cc1Br` is higher in melting point: 139 to 141 °C for the first, 188 °C for the second.

First: NC(=O)OC[C@H](Cc1ccccc1)NC(=O)OCc1ccccc1
Second: O=C(Nc1ccc2ccc(Cl)nc2n1)C1=CSCS1
The melting point of the first is lower: 121 to 128 °C for the first, 235 °C for the second.

Work on `CCCC(C)(O)C(=O)Nc1ccnc(Br)c1` (stereo unspecified) yielded a melting point of 102 °C.
